This series is described as follows: Controlled Release Soil Test (irrigated soil burial test). In kind it is physicochemical. The source says: To measure the relative solubilities of the products in soil, an irrigated soil burial test (“Controlled Release Soil Test”) was devised such that granules could be retrieved for measurement of their nitrogen content. The following is a description of the test.
Controlled Release Soil Test
Procedure for Controlled Release Soil Test
• 1. Screen the sample to obtain −6+7 Tyler mesh granules for the test. • 2. Label a freezer container with the test description. • 3. Place the freezer container on the 1200 g balance and tare out. • 4. Place 300 g of potting soil with a 40% moisture content into the container and record the weight. • 5. Over the soil place two (2) pieces of fiberglass mesh with 14 meshes to the inch and 1/16 inch openings. • 6. Tare out the container with the soil and fiberglass mesh screens. • 7. Spread 5 grams of −6+7 Tyler mesh granules over the screen in a single layer and record the weight. • 8. Place a large square of fiberglass mesh over the granules, with a stainless steel screen cut to fit over it, so that the shape of the container has been mirrored. • 9. Once this is shaped, tare out the container and add 150 g of soil and record the weight. • 10. Repeat this process for each sample to be tested (in triplet if possible). • 11. After all containers are completed, fill a mist spray bottle with de-ionized water and prime. • 12. […]

Molecules are shown by their SMILES.

Experimental findings from patent publication US20060003893A1, “Controlled release fertilizers employing ureaform compounds and processes for making same” (priority 2004, published 2006) are described below.

For the molecule `NC(N)=O` [UREA, urea], the “time to go into solution” value is ≤ 9 h. In addition, where the note is “9 hours”, the “Nitrogen Retained (%) 9 Hours” value amounted to 0%.
